This assay deals with L1210 leukemia ip in BDF1 mice, survival T/C. Put plainly: NCI In Vivo Anticancer Drug Screen. Data for tumor model L1210 Leukemia (intraperitoneal) in B6D2F1 (BDF1) mice. To be noted: endpoint: mean survival time, higher = longer survival. In a few lines:
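Ratio derived from survival: compound-dosed mice over vehicle-dosed mice, all bearing a transplantable tumor.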

Setting [1] is: dose: 100.0 mg/kg/injection, schedule: Q04DX003 (ip), vehicle: saline.
[2] abbreviates: dose: 100.0 mg/kg/injection, schedule: Q04DX002 (ip), vehicle: saline with Tween-80.
Setting [3] is: dose: 200.0 mg/kg/injection, schedule: Q04DX002 (ip), vehicle: saline with Tween-80.
[4] abbreviates: dose: 100.0 mg/kg/injection, schedule: Q04DX003 (ip), vehicle: Klucel (hydroxypropylcellulose) (HPC).
Setting [5] is: dose: 200.0 mg/kg/injection, schedule: Q04DX003 (ip), vehicle: Klucel (hydroxypropylcellulose) (HPC).
The mark [6] stands for this setting: dose: 400.0 mg/kg/injection, schedule: Q04DX003 (ip), vehicle: Klucel (hydroxypropylcellulose) (HPC).

Several values for one entry are separate records, joined by “and”; a condition that tells them apart may be missing. Equal entries are not always repeated. Toxic doses and inconclusive results are not listed.

With `CN1CC(C(=O)N2CCCCC2)C=C2c3cccc4[nH]cc(c34)CC21` (stereo unspecified), the T/C (dose: 3.12 mg/kg/injection, schedule: Q01DX009 (ip), vehicle: saline) was 95 % of control; the T/C (dose: 6.25 mg/kg/injection, schedule: Q01DX009 (ip), vehicle: saline) was 97 % of control; the T/C (dose: 12.5 mg/kg/injection, schedule: Q01DX009 (ip), vehicle: saline) was 98 % of control; the T/C (dose: 25.0 mg/kg/injection, schedule: Q01DX009 (ip), vehicle: saline) was 104 % of control; the T/C (dose: 25.0 mg/kg/injection, schedule: Q04DX003 (ip), vehicle: saline) is 100 % of control; the T/C (dose: 50.0 mg/kg/injection, schedule: Q01DX009 (ip), vehicle: saline) is 93 % of control. In addition, the T/C is, setting by setting: (dose: 50.0 mg/kg/injection, schedule: Q04DX003 (ip), vehicle: saline) 98 % of control; under setting [1], 97 % of control.
On to `CCCCN(CCCC)C(C)=O`, for which the T/C (dose: 50.0 mg/kg/injection, schedule: Q01DX001 (ip), vehicle: saline) is 94 % of control; the T/C (dose: 50.0 mg/kg/injection, schedule: Q04DX002 (ip), vehicle: saline with Tween-80) is 109 % of control; the T/C (dose: 100.0 mg/kg/injection, schedule: Q01DX001 (ip), vehicle: saline) was 100 % of control; the T/C under setting [2] was 95 % of control; the T/C (dose: 200.0 mg/kg/injection, schedule: Q01DX001 (ip), vehicle: saline) is 100 % of control; the T/C under setting [3] was 98 % of control.
On to `CC(=O)Oc1ccc(Br)cc1C=O`, for which the T/C was 100 % of control (dose: 100.0 mg/kg/injection, schedule: Q01DX001 (ip), vehicle: carboxymethylcellulose (CMC)); 94 % of control (dose: 200.0 mg/kg/injection, schedule: Q01DX001 (ip), vehicle: carboxymethylcellulose (CMC)); 103 % of control (dose: 400.0 mg/kg/injection, schedule: Q01DX001 (ip), vehicle: carboxymethylcellulose (CMC)).
Consider `CCCCC(CCCC)(C(=O)OCC)C(=O)OCC`, for which the T/C is 94 % of control under setting [2]; 96 % of control under setting [4]; 94 % of control under setting [3]; 105 % of control under setting [5]; 94 % of control (dose: 400.0 mg/kg/injection, schedule: Q04DX002 (ip), vehicle: saline with Tween-80); 91 % of control under setting [6].
With `CCN1c2c(nc(N)[nH]c2=O)NCC1CNc1ccc(C(=O)NC(CCC(=O)O)C(=O)O)cc1` (stereo unspecified), the T/C runs as follows: (dose: 100.0 mg/kg/injection, schedule: Q01DX009 (ip), vehicle: saline) 103 % of control; under setting [1], 108 % of control; (dose: 200.0 mg/kg/injection, schedule: Q01DX009 (ip), vehicle: saline) 115 % of control; (dose: 200.0 mg/kg/injection, schedule: Q04DX003 (ip), vehicle: saline) 104 % of control; (dose: 400.0 mg/kg/injection, schedule: Q01DX009 (ip), vehicle: saline) 94 % of control; (dose: 400.0 mg/kg/injection, schedule: Q04DX003 (ip), vehicle: saline) 103 % of control.
As for `CC(C#N)(Nc1ccccc1)c1ccc(Br)cc1` (stereo unspecified), the T/C under setting [4] is 95 % of control, the T/C under setting [5] was 95 % of control and the T/C under setting [6] was 95 % of control.
For `Clc1ccc2c(c1)/C(=C/c1ccccc1Cl)c1cc(Cl)cc(Cl)c1-2`, the T/C runs as follows: (dose: 100.0 mg/kg/injection, schedule: Q01DX001 (ip), vehicle: Klucel (hydroxypropylcellulose) (HPC)) 90 % of control; (dose: 100.0 mg/kg/injection, schedule: Q01DX009 (ip), vehicle: Klucel (hydroxypropylcellulose) (HPC)) 100 % of control; under setting [4], 91 % of control; (dose: 200.0 mg/kg/injection, schedule: Q01DX001 (ip), vehicle: Klucel (hydroxypropylcellulose) (HPC)) 88 % of control; (dose: 200.0 mg/kg/injection, schedule: Q01DX009 (ip), vehicle: Klucel (hydroxypropylcellulose) (HPC)) 88 % of control; under setting [5], 87 % of control. In addition, the T/C is 91 % of control (dose: 400.0 mg/kg/injection, schedule: Q01DX001 (ip), vehicle: Klucel (hydroxypropylcellulose) (HPC)); 102 % of control (dose: 400.0 mg/kg/injection, schedule: Q01DX009 (ip), vehicle: Klucel (hydroxypropylcellulose) (HPC)); 87 % of control under setting [6].
In the case of `COC(=O)C(C)NC(=O)C(COC1OC(COC(C)=O)C(OC(C)=O)C(OC(C)=O)C1NC(C)=O)NC(=O)OCc1ccccc1` (stereo unspecified), the T/C is 98 % of control (dose: 50.0 mg/kg/injection, schedule: Q04DX002 (ip), vehicle: Klucel (hydroxypropylcellulose) (HPC)); 91 % of control (dose: 100.0 mg/kg/injection, schedule: Q04DX002 (ip), vehicle: Klucel (hydroxypropylcellulose) (HPC)); 98 % of control (dose: 200.0 mg/kg/injection, schedule: Q04DX002 (ip), vehicle: Klucel (hydroxypropylcellulose) (HPC)).
With `CSC1SCC2C(=O)N(C)C(C(C)C)C(=O)OCC(NC(=O)c3cnc4ccccc4n3)C(=O)NC(C)C(=O)N(C)C1C(=O)N(C)C(C(C)C)C(=O)OCC(NC(=O)c1cnc3ccccc3n1)C(=O)NC(C)C(=O)N2C` (stereo unspecified), the T/C is 97 % of control (dose: 0.4 micrograms/kg/injection, schedule: Q01DX009 (ip), vehicle: saline with Tween-80); 102 % of control (dose: 0.9 micrograms/kg/injection, schedule: Q01DX009 (ip), vehicle: saline with Tween-80); 97 % of control (dose: 1.9 micrograms/kg/injection, schedule: Q01DX009 (ip), vehicle: saline with Tween-80); 102 % of control (dose: 3.8 micrograms/kg/injection, schedule: Q01DX009 (ip), vehicle: saline with Tween-80); 115 % of control (dose: 7.5 micrograms/kg/injection, schedule: Q01DX009 (ip), vehicle: saline with Tween-80); 117 % of control (dose: 15.0 micrograms/kg/injection, schedule: Q01DX009 (ip), vehicle: saline with Tween-80).
With `Nc1nc(N)c2nc(CNc3ccc(C(=O)NC(CCC(=O)O)C(=O)O)cc3)cnc2n1` (stereo unspecified), the T/C runs as follows: (dose: 0.02 mg/kg/injection, schedule: Q01DX Z (ip), vehicle: saline) 170 % of control; (dose: 0.02 mg/kg/injection, schedule: Q01DX Z (sc), vehicle: saline) 122 % of control; (dose: 0.03 mg/kg/injection, schedule: Q01DX Z (ip), vehicle: saline) 118 % of control; (dose: 0.05 mg/kg/injection, schedule: Q01DX006 (iv), vehicle: saline) 114 % of control; (dose: 0.05 mg/kg/injection, schedule: Q01DX010 (ip), vehicle: other) 98 % of control and 112 % of control; (dose: 0.05 mg/kg/injection, schedule: Q01DX Z (im), vehicle: saline) 119 % of control. The T/C (dose: 0.06 mg/kg/injection, schedule: Q01DX Z (ip), vehicle: saline) was 105 % of control; the T/C (dose: 0.1 mg/kg/injection, schedule: Q01DX010 (ip), vehicle: other) was 108 % of control; the T/C (dose: 0.1 mg/kg/injection, schedule: Q01DX Z (im), vehicle: saline) is 113 % of control; the T/C (dose: 0.1 mg/kg/injection, schedule: Q01DX Z (ip), vehicle: saline) was 119 % of control; the T/C (dose: 0.2 mg/kg/injection, schedule: Q01DX Z (im), vehicle: saline) was 154 % of control; the T/C (dose: 0.2 mg/kg/injection, schedule: Q01DX Z (ip), vehicle: saline) is 96 % of control and 105 % of control. For the same compound, the T/C reads like this: (dose: 0.2 mg/kg/injection, schedule: Q01DX Z (oral), vehicle: saline) 119 % of control; (dose: 0.2 mg/kg/injection, schedule: Q01DX Z (sc), vehicle: saline) 101 % of control and 114 % of control; (dose: 0.4 mg/kg/injection, schedule: Q01DX010 (ip), vehicle: other) 162 % of control; (dose: 0.5 mg/kg/injection, schedule: Q01DX001 (ip), vehicle: saline) 111 % of control and 114 % of control; (dose: 0.5 mg/kg/injection, schedule: Q01DX Z (oral), vehicle: saline) 106 % of control; (dose: 0.5 mg/kg/injection, schedule: Q01DX Z (sc), vehicle: saline) 103 % of control. Moreover, the T/C was 115 % of control (dose: 1.0 mg/kg/injection, schedule: Q01DX001 (ip), vehicle: saline); 94 % of control (dose: 1.0 mg/kg/injection, schedule: Q01DX Z (ip), vehicle: saline); 117 % of control and 121 % of control (dose: 2.0 mg/kg/injection, schedule: Q01DX001 (ip), vehicle: saline); 106 % of control and 124 % of control (dose: 16.0 mg/kg/injection, schedule: Q01DX001 (ip), vehicle: saline); 96 % of control and 120 % of control (dose: 32.0 mg/kg/injection, schedule: Q01DX001 (ip), vehicle: saline); 105 % of control (dose: 64.0 mg/kg/injection, schedule: Q01DX001 (ip), vehicle: saline). In addition, the T/C reads like this: (dose: 128.0 mg/kg/injection, schedule: Q01DX001 (ip), vehicle: saline) 105 % of control and 86 % of control; (dose: 256.0 mg/kg/injection, schedule: Q01DX001 (ip), vehicle: saline) 100 % of control.

(Values after PubChem BioAssay AID248 (DTP/NCI, 2004).)
